The nature of data set [1]: Detection of the absorption peak of the fluorescent dyes (UV-visible spectrophotometer, after standing at different temperatures). Format: physicochemical. Particulars: for Maximum absorption peak of the compounds disclosed: methanol/ethylene glycol (50:50 vol/vol), light-proof; for Maximum absorption peak: methanol/ethylene glycol, given with the synthesis example. How it is done: A certain amount of an asymmetric cyanine compound was accurately weighed and sufficiently dissolved in 2.5 mL of methanol/ethylene glycol solution (50:50 vol/vol) to prepare a fluorescent dye solution at a concentration of 5 mM. Four parts of 5 μL aliquots of the fluorescent dye solution were each diluted in 2 mL of methanol/ethylene glycol solution (50:50 vol/vol) and were let stand under a hermetic and light-proof condition at 0° C., 20° C., 40° C. and 60° C. respectively for 48 hours. The maximum absorption peak was detected using a ultraviolet-visible spectrophotometer.

Data set [2] deals with salmon sperm DNA. In words: Fluorescence intensity of dye in PBS containing salmon sperm DNA. The class given is binding. The following applies: for Relative fluorescence intensity, after binding DNA: bound with salmon sperm DNA; for Maximum excitation peak of the dye/DNA complexes: room temperature; for Ratio of increase in fluorescence (after vs before binding): salmon sperm DNA in PBS; for Fluorescence emission strength of the dye/DNA complexes: with increase in DNA concentration / on complex formation, PBS. As for the experimental part:
A certain amount of Dye-1 was accurately weighed and sufficiently dissolved in 2.5 mL of methanol/ethylene glycol (50:50 vol/vol) to prepare a dye solution at a concentration of 5 mM. This solution was filtered before use. Separate amounts of salmon sperm DNA were weighed and dissolved in PBS to obtain PBS buffers containing 3 mg/mL, 1 mg/mL, 0.3 mg/mL, 0.1 mg/mL of DNA. 2 μL aliquots of the prepared 5 mM dye solution were accurately measured and respectively combined in 1 mL of PBS with 1 μL of the PBS buffers containing different concentrations of DNA. After reacting for a period of time, the complexes were detected for their emission spectra at the selected excitation wavelength (which the skilled artisan would understand is the maximum absorption wavelength of the dye. See, e.g., Table 1). The detection was performed at room temperature. The instrument used was fluorescence spectrophotometer Model FL-4500. […] The detection procedures followed were those described in Example 10 and Example 11. The fluorescence spectra for the complexes of Dye-3 and different concentrations of DNA or RNA are shown in FIG. 6 and FIG. 7, respectively. The comparisons of fluorescence intensity for Dye-3 before and after it is bound with DNA or with RNA in PBS are shown in FIG. 8 and FIG. 9, respectively.

Data set [3] has as its system soft-shelled turtle (Trionyx sinensis) liver RNA. In words: Fluorescence intensity of dye in PBS containing soft-shelled turtle liver RNA. Format: binding. The following applies: for Relative fluorescence intensity, after binding RNA / Maximum excitation peak of the dye/RNA complexes / Relative fluorescence intensity, before binding RNA: in PBS; for Relative fluorescence intensity, after binding RNA: bound with soft-shelled turtle liver RNA; for Maximum excitation peak of the dye/RNA complexes: room temperature; for Relative fluorescence intensity, before binding RNA: without RNA; for Ratio of increase in fluorescence (after vs before binding): soft-shelled turtle liver RNA in PBS; for Fluorescence emission strength of the dye/RNA complexes: with increase in RNA concentration / on complex formation, PBS. How it is done: A certain amount of Dye-1 was accurately weighed and sufficiently dissolved in 2.5 mL of methanol/ethylene glycol (50:50 vol/vol) to prepare a dye solution at a concentration of 5 mM. This solution was filtered before use. Separate amounts of freshly prepared soft-shelled turtle (Trionyx sinensis) liver RNA were weighed and dissolved in PBS to obtain PBS buffers containing 100 μg/mL, 30 μg/mL, 10 μg/mL, 3 μg/mL of RNA. 2 μL aliquots of the prepared 5 mM dye solution were accurately measured and respectively combined in 1 mL of PBS with 1 μL of the PBS buffers containing different concentrations of RNA. After reacting for a period of time, the complexes were detected for their emission spectra at the selected excitation wavelength (which the skilled artisan would understand is the maximum absorption wavelength of the dye. See, e.g., Table 1). The detection temperature was at room temperature. The instrument used was fluorescence spectrophotometer Model FL-4500. […] The detection procedures followed were those described in Example 10 and Example 11. The fluorescence spectra for the complexes of Dye-3 and different concentrations of DNA or RNA are shown in FIG. 6 and FIG. 7, respectively. The comparisons of fluorescence intensity for Dye-3 before and after it is bound with DNA or with RNA in PBS are shown in FIG. 8 and FIG. 9, respectively.

Where [4] appears, read: after standing at 0° C. for 48 hours.
Where [5] appears, read: after standing at 20° C. for 48 hours.
[6] abbreviates: after standing at 40° C. for 48 hours.
Where [7] appears, read: after standing at 60° C. for 48 hours.

SMILES strings stand for the structures.

Take `CC[n+]1c(/C=C/C=C2\C=CN(CCO)c3ccccc32)sc2ccc(Br)cc21` [Dye-5]: the “Maximum absorption peak of the compounds disclosed” value in data set [1] (setting [4]), in data set [1] (setting [5]), in data set [1] (setting [6]) and in data set [1] (setting [7]) was 640 nm throughout. Besides, the Maximum absorption peak in data set [1] is 640 nm.

`CCN1C=C/C(=C\C=C\c2sc3ccccc3[n+]2CCOC(C)=O)c2ccc(Cl)cc21` [Dye-2]: the “Maximum absorption peak of the compounds disclosed” value in data set [1] (setting [4]), in data set [1] (setting [5]), in data set [1] (setting [6]) and in data set [1] (setting [7]) was 639 nm each time. For the same compound, in data set [1], the Maximum absorption peak came to 639 nm.

Turning to `CC[n+]1c(/C=C/C=C2\C=CN(CCO)c3ccccc32)sc2ccc(Cl)cc21` [Dye-3], in data set [2] (in PBS), the “Relative fluorescence intensity, after binding DNA” value turned out to be 97.56 and the “Maximum excitation peak of the dye/DNA complexes” value was above 655 nm. The “Relative fluorescence intensity, before binding DNA” value in data set [2] (in PBS, without salmon sperm DNA) came to 0.67. In addition, in data set [2], the “Ratio of increase in fluorescence (after vs before binding)” value (shortened to “Ratio of increase in fluorescence”) stood at 146 and the “Fluorescence emission strength of the dye/DNA complexes” value is listed as “increased rapidly”. Besides, the “Shift of the position of the maximum absorption peak as a function of temperature” value in data set [1] (0° C., 20° C., 40° C. and 60° C. for 48 hours) is reported as “did not shift”. For the same compound, the Maximum absorption peak in data set [1] came to 640 nm. In data set [3], the “Relative fluorescence intensity, after binding RNA” value was found to be 23.94; the “Maximum excitation peak of the dye/RNA complexes” value is given as above 655 nm; the “Relative fluorescence intensity, before binding RNA” value was 0.67; the “Ratio of increase in fluorescence” value amounted to 35.7. Moreover, in data set [3], the “Fluorescence emission strength of the dye/RNA complexes” value is listed as “increased rapidly”.

For the compound `CCN1C=C/C(=C\C=C\c2sc3ccccc3[n+]2CCO)c2ccc(Cl)cc21` [Dye-4], the “Maximum absorption peak of the compounds disclosed” value in data set [1] (setting [4]), in data set [1] (setting [5]), in data set [1] (setting [6]) and in data set [1] (setting [7]) was 639 nm in each case. The Maximum absorption peak in data set [1] was 639 nm.

Take `OCCN1C=C/C(=C\C=C\c2sc3ccc(Cl)cc3[n+]2CCO)c2ccccc21` [Dye-1]: in data set [2] (in PBS), the “Relative fluorescence intensity, after binding DNA” value is listed as 63.29 and the “Maximum excitation peak of the dye/DNA complexes” value is listed as “about 660 nm”. Further, in data set [2], the “Ratio of increase in fluorescence” value is on record as 84 and the “Fluorescence emission strength of the dye/DNA complexes” value is listed as “increased rapidly”. Moreover, the “Maximum absorption peak of the compounds disclosed” value in data set [1] (setting [4]) stood at 638 nm. Also, the “Maximum absorption peak of the compounds disclosed” value in data set [1] (setting [5]) was found to be 638 nm. The “Maximum absorption peak of the compounds disclosed” value in data set [1] (setting [6]) is 638 nm. Also, the “Maximum absorption peak of the compounds disclosed” value in data set [1] (setting [7]) came out at 638 nm. The Maximum absorption peak in data set [1] was 638 nm. In data set [3], the “Relative fluorescence intensity, after binding RNA” value is 16.79; the “Maximum excitation peak of the dye/RNA complexes” value was “about 660 nm”; the “Relative fluorescence intensity, before binding RNA” value turned out to be 0.75; the “Ratio of increase in fluorescence” value turned out to be 22.4. The “Fluorescence emission strength of the dye/RNA complexes” value in data set [3] was “increased rapidly”.

With `OCCN1C=C/C(=C\C=C\c2sc3ccccc3[n+]2CCO)c2ccc(Br)cc21` [Dye-6], the “Maximum absorption peak of the compounds disclosed” value in data set [1] (setting [4]), in data set [1] (setting [5]), in data set [1] (setting [6]) and in data set [1] (setting [7]) was 638 nm throughout. The compound further displayed a Maximum absorption peak in data set [1] of 638 nm.

The values are drawn from US7709653B2, “Asymmetric cyanine compounds, their preparation methods and their uses” (Shenzhen Mindray Bio-Medical Electronics Co. Ltd., priority 2008, dated 2010).
